Laboratory results reported in publication PMC10825183 (Nature Communications, 2024).
Where “and” joins values, the source holds several entries; their conditions need not be identical. Equal entries are not always repeated. Where two headings read alike, the source gives them in different places.

Experiments:
human HCN2 CNBD ΔE = biological target: T1, human HCN2 CNBD ΔE (Homo sapiens, UniProt Q9UL51); test: Isothermal titration calorimetry (ITC), CNBD ΔE; format: binding; conditions: mean ± SEM, n = 3
T1 sequence (Q9UL51 521-681): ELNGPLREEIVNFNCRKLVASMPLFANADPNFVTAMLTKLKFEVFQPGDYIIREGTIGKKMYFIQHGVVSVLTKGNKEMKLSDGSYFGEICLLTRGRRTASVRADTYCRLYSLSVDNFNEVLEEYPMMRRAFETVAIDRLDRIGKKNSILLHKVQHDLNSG

rbHCN4 ΔDE’ (1-723) = rbHCN4 ΔDE’ (1-723) (Oryctolagus cuniculus, UniProt Q9TV66)
rbHCN4 ΔDE’ (1-723), sequence (Q9TV66 1-723, stated change not applied): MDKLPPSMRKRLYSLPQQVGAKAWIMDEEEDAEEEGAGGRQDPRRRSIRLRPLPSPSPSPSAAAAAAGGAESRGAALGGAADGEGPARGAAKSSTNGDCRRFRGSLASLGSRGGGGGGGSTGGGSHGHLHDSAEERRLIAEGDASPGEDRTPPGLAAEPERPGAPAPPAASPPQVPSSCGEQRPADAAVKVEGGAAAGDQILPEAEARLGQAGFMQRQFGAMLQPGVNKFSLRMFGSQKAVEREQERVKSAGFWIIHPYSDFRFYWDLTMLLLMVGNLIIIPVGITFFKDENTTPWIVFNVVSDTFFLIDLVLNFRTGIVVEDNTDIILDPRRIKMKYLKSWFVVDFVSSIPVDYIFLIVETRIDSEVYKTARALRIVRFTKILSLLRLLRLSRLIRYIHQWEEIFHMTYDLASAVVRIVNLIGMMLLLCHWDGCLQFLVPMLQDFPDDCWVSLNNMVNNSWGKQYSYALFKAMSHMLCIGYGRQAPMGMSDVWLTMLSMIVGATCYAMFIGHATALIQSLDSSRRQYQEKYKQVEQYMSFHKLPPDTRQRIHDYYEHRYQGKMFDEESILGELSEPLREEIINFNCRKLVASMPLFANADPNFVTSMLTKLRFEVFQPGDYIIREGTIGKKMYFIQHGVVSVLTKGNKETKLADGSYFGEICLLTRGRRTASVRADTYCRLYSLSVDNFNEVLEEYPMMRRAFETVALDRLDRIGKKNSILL

hHCN2 CNBD D698A [1] = biological target: T2, hHCN2 CNBD D698A (Homo sapiens, UniProt Q9UL51, D698A); conditions: cAMP titrant
T2 sequence (Q9UL51 521-706 D698A): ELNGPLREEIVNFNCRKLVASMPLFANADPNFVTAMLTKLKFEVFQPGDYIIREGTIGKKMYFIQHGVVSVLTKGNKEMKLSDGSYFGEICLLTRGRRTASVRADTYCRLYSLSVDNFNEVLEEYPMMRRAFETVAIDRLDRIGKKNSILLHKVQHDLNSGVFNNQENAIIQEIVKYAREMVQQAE

hHCN2 CNBD R662A [2] = biological target: T3, hHCN2 CNBD R662A (Homo sapiens, UniProt Q9UL51, R662A); conditions: cAMP titrant
T3 sequence (Q9UL51 521-706 R662A): as the sequence (Q9UL51 521-706 D698A) above, with R142A, A178D counted along it

HCN4 = conditions: cited from earlier work
[3] = biological target: isolated C-linker and CNBD; conditions: ref Chow et al (2012), cited from earlier work
[4] = tested on: native If current in sinoatrial node myocytes; conditions: read-out: affinity value for cAMP; ref DiFrancesco and Tortora, Nature, 1991; cited from earlier work
hHCN2 CNBD D698A [5] = biological target: T2, hHCN2 CNBD D698A; test: biochemical
hHCN2 CNBD R662A [6] = biological target: T3, hHCN2 CNBD R662A; test: biochemical
human HCN2 CNBD ΔDE’ = biological target: T4, human HCN2 CNBD ΔDE’ (Homo sapiens, UniProt Q9UL51); test: Isothermal titration calorimetry (ITC), CNBD ΔDE’
T4 sequence (Q9UL51 521-672): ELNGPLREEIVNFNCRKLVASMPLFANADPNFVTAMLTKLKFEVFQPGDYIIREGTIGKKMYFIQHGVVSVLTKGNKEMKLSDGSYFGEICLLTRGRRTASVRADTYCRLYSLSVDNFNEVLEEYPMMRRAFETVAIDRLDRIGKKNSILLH

human HCN2 CNBD ΔC-term = biological target: T5, human HCN2 CNBD ΔC-term (Homo sapiens, UniProt Q9UL51); test: Isothermal titration calorimetry (ITC), CNBD ΔC-term; conditions: mean ± SEM, n = 3
T5 sequence (Q9UL51 521-706): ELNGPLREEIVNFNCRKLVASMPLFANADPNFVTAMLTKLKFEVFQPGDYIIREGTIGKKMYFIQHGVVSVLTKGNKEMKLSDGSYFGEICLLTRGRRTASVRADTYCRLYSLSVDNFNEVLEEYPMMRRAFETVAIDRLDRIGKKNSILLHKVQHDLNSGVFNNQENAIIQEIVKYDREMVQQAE

[7] = KD, cAMP titrated into 20 µM CNBD, 25 °C
[8] = KD of individual experiments (source data Fig. 4e), cAMP titrant, unit inferred
[9] = KD, cAMP titrated into 20 µM CNBD, 25 °C, mean ± SEM, n = 3

In the case of `Nc1ncnc2c1ncn2[C@@H]1O[C@@H]2COP(=O)(O)O[C@H]2[C@H]1O` [cAMP, Adenosine 3′,5′-cyclic monophosphate], the Kd (human HCN2 CNBD ΔE; [7]) is reported as 1.2 ± 0.1 µM, the “stoichiometry (N)” value (human HCN2 CNBD ΔE; cAMP titrant) is reported as 1.0 ± 0.1 and the “V1/2 with cAMP” value (rbHCN4 ΔDE’ (1-723); 5 µM cAMP in pipette, mean ± SEM) is reported as -95.5 ± 0.8 mV. For the same compound, the “k (inverse slope factor) with cAMP” value (rbHCN4 ΔDE’ (1-723); 5 µM cAMP, mean ± SEM) was 8.4 ± 0.1 mV, the “Hill coefficient (nH)” value (rbHCN4 ΔDE’ (1-723); Hill fit of shift in V1/2 vs cAMP concentration) was 1 and the “stoichiometry (N)” value (hHCN2 CNBD D698A [1]; mean ± SEM, n = 3) was 0.8 ± 0.1. For the same compound, the “N, representative sample (Fig. 4d)” value (hHCN2 CNBD D698A [1]; single ITC experiment) was 0.7, the “stoichiometry (N)” value (hHCN2 CNBD R662A [2]; mean ± SEM, n = 3) was 0.9 ± 0.1 and the “N, representative sample (Fig. 4d)” value (hHCN2 CNBD R662A [2]; single ITC experiment) was 0.7. For the same compound, the EC50 (HCN4; ref Baruscotti et al, 2017) was 1.67 µM, the EC50 (HCN4; ref Milanesi et al, 2006) was 1.53 µM and the EC50 (HCN4; ref Moller et al 2014) was 0.82 µM. For the same compound, the Kd ([3]; read-out: binding affinity, higher affinity, protein at ~100uM or greater, predominantly tetramers) was 0.12 µM, the Kd ([3]; read-out: binding affinity, lower affinity, protein at ~100uM or greater, predominantly tetramers) was 1.5 µM and the Kd ([3]; read-out: binding affinity, single lower affinity, first two helices of the C-linker removed, monomeric protein) was ~1.8 µM. The Kd ([3]; read-out: binding affinity, single lower affinity, lower protein concentrations, tetramers less frequent) was ~1.5 µM, the EC50 [4] was 0.2 µM and the Kd (hHCN2 CNBD D698A [5]; [8]) was 1.7 µM and 1.6 µM and 1.3 µM. The Kd (hHCN2 CNBD D698A [5]; [9]) was 1.5 ± 0.1 µM, the Kd (hHCN2 CNBD D698A [5]; KD, representative sample (Fig. 4d), cAMP titrant, single ITC experiment) was 1 µM and the Kd (hHCN2 CNBD R662A [6]; [8]) was 1.08 µM and 0.98 µM and 1.1 µM. It also gave a Kd (hHCN2 CNBD R662A [6]; [9]) of 1 ± 0.03 µM, a Kd (human HCN2 CNBD ΔDE’; cAMP titrated into 20 µM CNBD, 25 °C, mean ± SEM, n = 3) of 1.2 ± 0.03 µM and a Kd (human HCN2 CNBD ΔDE’; representative sample (Fig. 2d), cAMP titrant, single ITC experiment) of 1.2 µM. For the same compound, the “stoichiometry (N)” value (human HCN2 CNBD ΔDE’; cAMP titrant, mean ± SEM, n = 3) was 0.8 ± 0.1, the Kd (human HCN2 CNBD ΔC-term; [7]) was 0.3 ± 0.01 µM and the “stoichiometry (N)” value (human HCN2 CNBD ΔC-term; cAMP titrant) was 0.4 ± 0.1.
